Reference: patent US5859036A, “3,4-diarylthiazolin-2-one or -2-thione derivatives, their methods of preparation and their uses in their methods of preparation and their uses in therapeutics” (Laboratories UPSA, priority 1997, dated 1999)

Key:
[1] = Analgesic activity, test of arthritis with kaolin in rats; assay type: in vivo; details: 0.5 h; rat, oral, 30 min after intra-articular 10% kaolin; dose inducing 50% decrease of the maximal quotations of control
Description: (§1) The anti-inflammatory activity of the compounds of the Examples has been evaluated according to the method of oedema with carrageenan and the analgesic activity has been evaluated according to the method of arthritis with kaolin.
The analgesic activity is evaluated in rats by the test of arthritis with kaolin. Thirty minutes after intra-articular administration of an aqueous 10% suspension of kaolin, the product is administered orally at a rate of 1 ml/ 100 g (n=10 animals per dose). The results are expressed in the form of ED50, the dose in mg/kg which induces 50% decrease of the maximal quotations obtained in the control batch, calculated by linear regression.

COX-2 = target: T1, COX-2 (Ovis aries, UniProt P79208); test: Inhibition of COX-2 enzymatic activity (purified enzyme from ewe placenta, PGE2 by EIA); assay type: biochemical; details: for IC50: 1 U COX-2, 10 min preincubation at 25° C., 4 μM arachidonic acid, 5 min, n=1 to 4; for Selectivity COX-1/COX-2 ratio: ratio of IC50 COX-1 / IC50 COX-2
T1 construct: purified enzyme from ewe placenta; from tissue; host or cells: ewe placenta
T1 sequence (P79208 17-603): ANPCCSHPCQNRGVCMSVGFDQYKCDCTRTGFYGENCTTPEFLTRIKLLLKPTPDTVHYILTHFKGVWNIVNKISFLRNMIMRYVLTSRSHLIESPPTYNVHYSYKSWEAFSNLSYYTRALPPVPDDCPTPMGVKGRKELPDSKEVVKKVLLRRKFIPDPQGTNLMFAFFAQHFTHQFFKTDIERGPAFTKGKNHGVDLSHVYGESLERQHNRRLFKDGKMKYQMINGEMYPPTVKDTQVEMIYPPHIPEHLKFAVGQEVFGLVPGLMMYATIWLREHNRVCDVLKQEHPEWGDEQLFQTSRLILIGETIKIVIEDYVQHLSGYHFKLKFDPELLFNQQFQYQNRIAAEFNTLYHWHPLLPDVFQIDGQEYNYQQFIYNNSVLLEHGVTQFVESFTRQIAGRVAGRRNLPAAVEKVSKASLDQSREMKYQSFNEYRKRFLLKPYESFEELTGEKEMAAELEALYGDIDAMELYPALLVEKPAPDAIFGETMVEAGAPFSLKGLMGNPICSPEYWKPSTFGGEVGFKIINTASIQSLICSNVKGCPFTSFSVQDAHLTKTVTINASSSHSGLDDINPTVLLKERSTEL
Description: (§2) Inhibition of the COX-1 and COX-2 enzymatic activities The molecule studied is preincubated for 10 minutes at 25° C. with 2 U of COX-1 (purified enzyme from ram seminal vesicles) or 1 U of COX-2 (purified enzyme from ewe placenta). Arachidonic acid (6 μM for COX-1,4 μM for COX-2) is added to the reaction medium and incubation is carried out for 5 minutes at 25° C. When incubation has ended, the enzymatic reaction is stopped by the addition of 1 N HCl and the PGE2 produced is determined by EIA. The results are expressed in the form of IC50, concentration in […] corresponding to 50% inhibition of the maximal enzymatic activity upon COX-1 and COX-2 (n=1 to 4 determinations).

[2] = Anti-inflammatory activity, test of oedema with carrageenan in rats; assay type: in vivo; details: rat, oral, product 1 h before plantar injection of 2% carrageenan; dose inducing 50% of the maximal decrease of oedema volume; read-out: Anti-inflammatory Activity ID50
Description: as §1
Anti-inflammatory activity:
The anti-inflammatory activity is evaluated in rats by the test of oedema with carrageenan. The product is administered orally at a rate of 2.5 ml/100 g (n=6 animals per dose) 2 hours 30 minutes after a water overload taken orally (2.5 ml/100 g). One hour after administration of the product, the oedema is induced by plantar subcutaneous injection of aqueous 2% carrageenan solution. The results are expressed as ID50, dose in mg/kg, calculated by linear regression, which induces 50% of the maximal decrease of the volume of the oedema obtained from each product tested.

COX-1 = target: T2, COX-1 (Ovis aries, UniProt P05979); test: Inhibition of COX-1 enzymatic activity (purified enzyme from ram seminal vesicles, PGE2 by EIA); assay type: biochemical; details: 2 U COX-1, 10 min preincubation at 25° C., 6 μM arachidonic acid, 5 min; n=1 to 4
T2 construct: purified enzyme from ram seminal vesicles; from tissue; host or cells: ram seminal vesicles
T2 sequence (P05979 25-600): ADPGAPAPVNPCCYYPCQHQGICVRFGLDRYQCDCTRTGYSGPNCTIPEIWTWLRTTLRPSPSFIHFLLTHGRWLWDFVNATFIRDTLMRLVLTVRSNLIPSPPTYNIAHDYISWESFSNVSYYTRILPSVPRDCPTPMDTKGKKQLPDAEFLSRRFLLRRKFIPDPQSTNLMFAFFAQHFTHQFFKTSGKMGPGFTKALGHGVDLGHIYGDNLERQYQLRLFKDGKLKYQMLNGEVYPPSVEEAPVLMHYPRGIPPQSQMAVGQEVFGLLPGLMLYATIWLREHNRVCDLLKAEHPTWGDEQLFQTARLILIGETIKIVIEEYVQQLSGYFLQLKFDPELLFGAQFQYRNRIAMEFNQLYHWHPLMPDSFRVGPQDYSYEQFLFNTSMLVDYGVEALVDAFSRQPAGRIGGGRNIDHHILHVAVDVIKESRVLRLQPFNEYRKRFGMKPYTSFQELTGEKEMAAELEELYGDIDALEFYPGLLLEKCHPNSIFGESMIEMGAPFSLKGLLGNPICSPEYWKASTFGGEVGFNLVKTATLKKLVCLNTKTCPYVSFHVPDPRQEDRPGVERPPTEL
Description: as §2

In the case of `NS(=O)(=O)c1ccc(-c2csc(=O)n2-c2cccc(F)c2)cc1` [Example 45], the ED50 [1] is reported as 1.3 mg/kg, the IC50 (COX-2) is reported as 240 nM and the “Selectivity COX-1/COX-2 ratio” value (COX-2) is reported as 1367. For the same compound, the ED50 [2] was 2.8 mg/kg and the IC50 (COX-1) was 335000 nM.
In the case of `NS(=O)(=O)c1ccc(-c2csc(=S)n2-c2ccc(F)cc2)cc1` [Example 13], the IC50 (COX-2) is reported as 930 nM, the “Selectivity COX-1/COX-2 ratio” value (COX-2) is reported as 34 and the IC50 (COX-1) is reported as 32000 nM.
With `NS(=O)(=O)c1ccc(-c2csc(=S)n2-c2ccc(F)c(F)c2)cc1` [Example 30] the IC50 (COX-2) was 210 nM, the “Selectivity COX-1/COX-2 ratio” value (COX-2) was 94 and the IC50 (COX-1) was 19800 nM.
With `CS(=O)(=O)c1ccc(-c2csc(=O)n2-c2ccc(Cl)cc2)cc1` [Example 46] the IC50 (COX-2) was 570 nM, the “Selectivity COX-1/COX-2 ratio” value (COX-2) was 286 and the IC50 (COX-1) was 163000 nM.
In the case of `NS(=O)(=O)c1ccc(-c2csc(=S)n2-c2cccc(F)c2)cc1` [Example 29], the IC50 (COX-2) is reported as 650 nM, the “Selectivity COX-1/COX-2 ratio” value (COX-2) is reported as 396 and the IC50 (COX-1) is reported as 258000 nM.
For `COc1ccc(-n2c(-c3ccc(S(N)(=O)=O)cc3)csc2=S)cc1Cl` [Example 20], the IC50 (COX-2) was 2000 nM, the “Selectivity COX-1/COX-2 ratio” value (COX-2) was 9 and the IC50 (COX-1) was 17600 nM.
With `CS(=O)(=O)c1ccc(-c2csc(=S)n2-c2cccc(Cl)c2)cc1` [Example 9] the IC50 (COX-2) was 3340 nM, the “Selectivity COX-1/COX-2 ratio” value (COX-2) was 30 and the IC50 (COX-1) was 100000 nM.
With `NS(=O)(=O)c1ccc(-c2csc(=O)n2-c2ccc(Cl)c(Cl)c2)cc1` [Example 39] the IC50 (COX-2) was 140 nM, the “Selectivity COX-1/COX-2 ratio” value (COX-2) was 14 and the IC50 (COX-1) was 1940 nM.
